The values below come from article PMC314469, “Protein Interaction Networks by Proteome Peptide Scanning” (PLoS Biology, 2004).

Assay [1] addresses T1, Rvs167 SH3 domain (GST-fused) (Saccharomyces cerevisiae, UniProt P39743).
T1 construct: Experiments were carried out on sensor chips with GST-fused SH3 domains and GST as a control; made in house
Nature of the assay: Surface plasmon resonance (BIAcoreX) dissociation constants of peptides, Rvs167 SH3 domain. It is filed as binding. The note with it: Figure 4A; SPR BIAcoreX, GST-SH3 coupled to CM5 chip, GST control; peptides in 10 mM HEPES, 150 mM NaCl, 3.4 mM EDTA, 0.005% P20, pH 7.4, 25°C; steady-state model; read-out: dissociation constant, SH3 DOMAINS RVS167. As to the method:
(§1) Figure 4 Measurement of Dissociation Constants and Correlation with SPOT Intensities (A) Dissociation constants were measured with a BIAcoreX instrument as described in the Materials and Methods. The experiments with the Abp1 SH3 domain were carried out in triplicate. (B) Normalized BLU intensities plotted as a function of the log of the dissociation constant.
(§2) Surface plasmon resonance measurements were carried out with a BIAcoreX instrument (BIAcore, Uppsala, Sweden). Experiments were carried out on sensor chips with GST-fused SH3 domains and GST as a control. […] Interaction analysis was performed at 25°C with the peptides dissolved in 10 mM HEPES, 150 mM NaCl, 3.4 mM EDTA, and 0.005% surfactant P20 (pH 7.4), at 15 μl/min flow rate, using six to seven dilutions, ranging from 500 μM to 65 nM. Dissociation constant values were evaluated by applying the steady-state model using BIAcore evalution 3.1 software.

The target of assay [2] is T2, Boi2 SH3 domain (GST-fused) (Saccharomyces cerevisiae, UniProt P39969).
T2 construct: Experiments were carried out on sensor chips with GST-fused SH3 domains and GST as a control; made in house
T2 sequence (P39969 43-107 limits assumed): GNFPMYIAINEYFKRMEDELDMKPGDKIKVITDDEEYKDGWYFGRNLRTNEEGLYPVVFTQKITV
Nature of the assay: Surface plasmon resonance (BIAcoreX) dissociation constants of peptides, Boi2 SH3 domain. Conditions: Figure 4A; SPR BIAcoreX, GST-SH3 coupled to CM5 chip, GST control; peptides in 10 mM HEPES, 150 mM NaCl, 3.4 mM EDTA, 0.005% P20, pH 7.4, 25°C; steady-state model; read-out: dissociation constant, SH3 DOMAINS BOI2. In kind it is binding. How it is done:
as §1, §2
A general note: In SPR one partner is held on a chip, and binding of the other changes the refractive index at the surface.

Assay [3] concerns the target T3, Yfr024c SH3 domain (GST-fused) (Saccharomyces cerevisiae, UniProt P43603).
T3 construct: Experiments were carried out on sensor chips with GST-fused SH3 domains and GST as a control; made in house
T3 sequence (P43603 400-459 limits assumed): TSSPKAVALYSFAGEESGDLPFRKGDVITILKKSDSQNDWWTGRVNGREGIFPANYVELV
Kind of assay: Surface plasmon resonance (BIAcoreX) dissociation constants of peptides, Yfr024c SH3 domain. Conditions: Figure 4A; SPR BIAcoreX, GST-SH3 coupled to CM5 chip, GST control; peptides in 10 mM HEPES, 150 mM NaCl, 3.4 mM EDTA, 0.005% P20, pH 7.4, 25°C; steady-state model; read-out: dissociation constant, SH3 DOMAINS YFR024C. In kind it is binding. How it is done: as §1, §2

Assay [4] addresses T4, Ysc84 SH3 domain (GST-fused) (Saccharomyces cerevisiae, UniProt P32793).
T4 construct: Experiments were carried out on sensor chips with GST-fused SH3 domains and GST as a control; made in house
T4 sequence (P32793 409-468 limits assumed): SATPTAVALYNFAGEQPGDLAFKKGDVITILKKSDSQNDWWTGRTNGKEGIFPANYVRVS
Nature of the assay: Surface plasmon resonance (BIAcoreX) dissociation constants of peptides, Ysc84 SH3 domain. In kind it is binding. The note with it: Figure 4A; SPR BIAcoreX, GST-SH3 coupled to CM5 chip, GST control; peptides in 10 mM HEPES, 150 mM NaCl, 3.4 mM EDTA, 0.005% P20, pH 7.4, 25°C; steady-state model; read-out: dissociation constant, SH3 DOMAINS YSC84. How it is done:
as §1, §2

The subject of the next assay is Myo5 SH3 domain. Kind of assay: SPOT analysis of cellulose-bound peptides (WISE), Myo5 SH3 domain (Dataset S4). In kind it is binding, Saccharomyces cerevisiae. The note with it: for The normalized value in BLU units: Myo5 SH3 domain.
The mark [5] stands for this setting: SPOT analysis of cellulose-bound peptides probed with Myo5 SH3 domain, normalized value.
Setting [6] is: SPOT analysis of cellulose-bound 14-mer yeast proteome peptides, normalized value, mean where the peptide was synthesized more than once.
Where [7] appears, read: SPOT analysis of membrane-synthesized peptides probed with Myo5 SH3 domain, normalized value.
The mark [8] stands for this setting: SPOT analysis of membrane-bound peptides, normalized value (see methods).

pKd: −log10 of the molar value. No end group written: not given here.

T1 sequence (P39743 421-482 limits assumed): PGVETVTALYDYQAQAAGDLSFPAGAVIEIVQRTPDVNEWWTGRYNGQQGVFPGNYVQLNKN

Regarding RPKRRAPPPVPKKP [YIR003 RPKRRAPPPVPKKP], the pKd in assay [1] was 4.89.

Consider PQQNRPLPQLPNRN [LAS17 PQQNRPLPQLPNRN], for which the pKd in assay [1] is 4.49; in assay [2], under 4.00; in assay [3], 4.72; in assay [4] it was 4.57.

On to RAVPILPPRNNVEP [YBR108W RAVPILPPRNNVEP], for which the pKd in assay [1] is 4.41; in assay [2], under 4.00; in assay [3], 4.85; in assay [4] it was 4.89.

Consider GKDKSRPPRPPPKP [PK1 GKDKSRPPRPPPKP], for which the pKd in assay [1] was under 4.00.

For the sequence RPLPQLPNRNNRPV [LAS17 RPLPQLPNRNNRPV], the pKd is 4.52 in assay [1], under 4.00 in assay [2], 5.05 in assay [3] and 5.02 in assay [4].

On to SGPPLLPPRNTMKN [YJR083C SGPPLLPPRNTMKN], for which the pKd in assay [1] was 4.80; in assay [2] it was under 4.00; in assay [3], 5.46; in assay [4], 5.30.

For the sequence GTTNRGPPPLPPRA [ACF2 GTTNRGPPPLPPRA], the pKd in assay [1] was 5.20; in assay [2], under 4.00; in assay [3], 5.77; in assay [4], 5.96.

On to NAPERAVPILPPRN [YBR108W NAPERAVPILPPRN], for which the pKd in assay [1] is 4.25; in assay [2] it was under 4.00; in assay [3], 5.38; in assay [4], 4.89.

As to DIKTRSVPKIPSIE [DEM1 DIKTRSVPKIPSIE], the pKd in assay [1], in assay [2], in assay [3] and in assay [4] was under 4.00 each time.

STPPTLPPRRIEDP [YMR192 STPPTLPPRRIEDP]: the pKd in assay [1] is 4.55; in assay [2] it was under 4.00; in assay [3], 4.96; in assay [4], 5.04.

NIQPDLPPRKIMIP [YBR239C NIQPDLPPRKIMIP]: the pKd in assay [1] is 4.41; in assay [2] it was under 4.00; in assay [3], 4.66; in assay [4], 4.80.

As to RGPPPLPPRANVQP [ACF2 RGPPPLPPRANVQP], the pKd in assay [2] is under 4.00; in assay [3] it was 5.89; in assay [4], 5.80.

SSPPPLPTRRDHIK [YPR171 SSPPPLPTRRDHIK]: the pKd is 4.80 in assay [1], under 4.00 in assay [2], 5.32 in assay [3] and 5.48 in assay [4].

As to EARPYSEPSEPEDS, the “The normalized value in BLU units (SPOT analysis, Myo5 SH3)” value with Myo5 SH3 domain (setting [5]) is on record as 208.3 BLU.

Regarding IEEGHLDPEAPDKL, the “The normalized value in BLU units” value in the assay with Myo5 SH3 domain (setting [6]) came out at 84.8 BLU.

As for GDEERFLPNRPHYE, in the assay on Myo5 SH3 domain (setting [7]), the “The normalized value in BLU units (SPOT analysis, Myo5 SH3)” value amounted to 125.8 BLU.

For the sequence NPFVRINPNRPEAA, the “The normalized value in BLU units (SPOT analysis, Myo5 SH3)” value with Myo5 SH3 domain (setting [7]) amounted to 275.9 BLU.

For ALKEMTHPIKPSAQ, the “The normalized value in BLU units (SPOT analysis, Myo5 SH3)” value in the assay on Myo5 SH3 domain (setting [5]) was found to be 261.0 BLU.

With NFLKHYLPSSPGDI, the “The normalized value in BLU units (SPOT analysis, Myo5 SH3)” value in the assay with Myo5 SH3 domain (setting [5]) was 172.3 BLU.

As to RERPLEPPRKPMAS, the “The normalized value in BLU units” value with Myo5 SH3 domain (setting [6]) worked out at 967.3 BLU.

As for SEAKRKFPEAPEVP, the “The normalized value in BLU units” value in the assay with Myo5 SH3 domain (setting [6]) is 392.6 BLU.

With SPVNLLKPFNPTLP, in the assay on Myo5 SH3 domain (setting [5]), the “The normalized value in BLU units (SPOT analysis, Myo5 SH3)” value was 122.9 BLU.

For NELVKRFPGHPPLR, in the assay on Myo5 SH3 domain (setting [8]), the “The normalized value in BLU units” value is on record as 300.5 BLU.

As for KFFKHLYPAIPILD, in the assay on Myo5 SH3 domain (setting [6]), the “The normalized value in BLU units” value was determined as 217.0 BLU.

For the sequence HELVKSDPHFPYGT, the “The normalized value in BLU units” value in the assay with Myo5 SH3 domain (setting [8]) was found to be 229.2 BLU.

Turning to ENTPRPNPTQPRKP, the “The normalized value in BLU units” value in the assay on Myo5 SH3 domain (setting [6]) turned out to be 137.3 BLU.

Regarding KELLLIPPGFPTKN, in the assay with Myo5 SH3 domain (setting [6]), the “The normalized value in BLU units” value is listed as 122.9 BLU.

LRISKPDPECPSKL: in the assay on Myo5 SH3 domain (setting [7]), the “The normalized value in BLU units (SPOT analysis, Myo5 SH3)” value was found to be 246.3 BLU.

Regarding YLPHMSRPLGPDEV, the “The normalized value in BLU units (SPOT analysis, Myo5 SH3)” value with Myo5 SH3 domain (setting [5]) stood at 172.0 BLU.

Regarding YENCHSLPLDPQSP, the “The normalized value in BLU units” value in the assay with Myo5 SH3 domain (setting [6]) is listed as 121.9 BLU.

On to AELLLGQPMFPGES, for which, in the assay with Myo5 SH3 domain (setting [5]), the “The normalized value in BLU units (SPOT analysis, Myo5 SH3)” value is listed as 172.2 BLU.

On to EIKDRDQPAVPPSP, for which the “The normalized value in BLU units (SPOT analysis, Myo5 SH3)” value in the assay with Myo5 SH3 domain (setting [7]) came to 108.1 BLU.

With GQIDRDKPSEPERT, the “The normalized value in BLU units (SPOT analysis, Myo5 SH3)” value with Myo5 SH3 domain (setting [7]) turned out to be 100.5 BLU.

On to IAKPYVLPFFPLYA, for which the “The normalized value in BLU units” value in the assay on Myo5 SH3 domain (setting [6]) is 246.9 BLU.

Regarding ASFRKTKPPPPLDF, the “The normalized value in BLU units (SPOT analysis, Myo5 SH3)” value with Myo5 SH3 domain (setting [7]) was found to be 169.0 BLU.

For IAKLKRKPVVPRLK, in the assay on Myo5 SH3 domain (setting [8]), the “The normalized value in BLU units” value stood at 888.5 BLU.

As to VFSLMNCPAYPDVQ, the “The normalized value in BLU units (SPOT analysis, Myo5 SH3)” value with Myo5 SH3 domain (setting [5]) amounted to 153.4 BLU.

For the sequence DFPLYKSPAFPSSC, the “The normalized value in BLU units (SPOT analysis, Myo5 SH3)” value in the assay with Myo5 SH3 domain (setting [5]) is 172.8 BLU.

Consider RAAGMDVPIIPGIM, for which the “The normalized value in BLU units” value in the assay with Myo5 SH3 domain (setting [6]) is 98.2 BLU.
